Assay results reported in US9012521B2, “Pyrroloquinoline quinone gel” (Mitsubishi Gas Chemical Company, Inc., priority 2010, dated 2015).

Tests used:
[1] = Dissolution test in water, monitored by absorption at 450 nm; format: physicochemical; conditions: 1.3 mg PQQ powder in 2 mL water, room temperature; time to complete dissolution calculated from gradient of concentration change
Protocol: In Examples and Comparative Examples, UV measurements were performed using a HITACHI U-2000 Spectrophotometer. […] To an acrylic cell for UV measurement, 1.3 mg of the PQQ powder was added, followed by the addition of 2 mL of water. […] The dissolution in water was monitored by absorption at 450 nm at room temperature. Absorbance measurement was performed for one hour, and the duration until the complete dissolution was calculated from the gradient of change in the concentration.

[2] = Specific surface area by the BET method with N2 adsorption; format: physicochemical; conditions: pre-treatment drying at 150° C. for 20 hours
Protocol: Using an Autosorb-6B manufactured by Quantachrome Instruments as the measurement apparatus, the specific surface area was determined by the BET method with N2 adsorption.

[3] = format: physicochemical
Excerpt: When mixing the salt of pyrroloquinoline quinone with the dispersion medium, the salt of pyrroloquinoline quinone may be added to the dispersion medium, the dispersion medium may be added to the salt of pyrroloquinoline quinone, or the salt of pyrroloquinoline quinone and the disperse medium may be added into separate vessels. Preferably, the salt of pyrroloquinoline quinone can be added to the dispersion medium. Preferably, the concentration of the salt of pyrroloquinoline quinone here is the same or higher than the solubility. The “solubility” as used herein refers to the extent to which a solute dissolves in a solvent, and can be expressed by the concentration of the solute in the saturated solution. The solubility of the salt of pyrroloquinoline quinone can be suitably determined by the temperature of the mixture.

For `O=C(O)c1cc(C(=O)O)c2c(n1)C(=O)C(=O)c1cc(C(=O)O)[nH]c1-2` [Comparative Example 1, Pyrroloquinoline quinone disodium], the Dissolution time [1] was 10 min, the specific surface area [2] was 2.9 m^2/g and the solubility in water [3] was 0.299 g per 100 g of water.
